From ChEMBL document CHEMBL3763141, “Anti-Candida Cassane-Type Diterpenoids from the Root Bark of Swartzia simplex” (2015)
Converted amounts (≈) assume the structure as drawn. The source made the active and inactive calls. The rule behind the calls is not given here.

Assays:
Candida albicans [1] = assay: Antibiofilm activity against Candida albicans CAF2-1 after 48 hrs by XTT assay; assay type: functional; conditions: CAF2-1, 48 h
Candida albicans [2] = assay: Antifungal activity against Candida albicans CAF2-1 after overnight incubation by MTT based bioautography method; assay type: functional
Candida albicans [3] = assay: Antifungal activity against Candida albicans CAF2-1 after 24 hrs by spectrophotometry based broth dilution assay; assay type: functional; conditions: CAF2-1, 24 h
Candida albicans [4] = assay: Antifungal activity against hypersusceptible Candida albicans DSY2621 mutant after overnight incubation by MTT based bioautography method; assay type: functional
Candida albicans [5] = assay: Induction of ultrastructural changes in Candida albicans CAF2-1 assessed as cytoplasmic content dis-organization with disappearance of golgi apparatus at 16 ug/ml after 18 hrs by uranyl acetate/lead citrate staining based transmission electron microscopy; assay type: functional, organism-based
Candida albicans [6] = assay: Induction of ultrastructural changes in Candida albicans CAF2-1 assessed as cytoplasmic content dis-organization with disappearance of mitochondria at 16 ug/ml after 18 hrs by uranyl acetate/lead citrate staining based transmission electron microscopy; assay type: functional, organism-based
Candida albicans [7] = assay: Induction of ultrastructural changes in Candida albicans CAF2-1 assessed as cytoplasmic content dis-organization with disappearance of ribosomes at 16 ug/ml after 18 hrs by uranyl acetate/lead citrate staining based transmission electron microscopy; assay type: functional, organism-based
Candida albicans [8] = assay: Induction of ultrastructural changes in Candida albicans CAF2-1 assessed as retraction of cytoplasm at 16 ug/ml after 18 hrs by uranyl acetate/lead citrate staining based transmission electron microscopy; assay type: functional, organism-based
Candida albicans [9] = assay: Induction of ultrastructural changes in Candida albicans CAF2-1 assessed as reduction in budding initiation at 16 ug/ml after 18 hrs by uranyl acetate/lead citrate staining based transmission electron microscopy; assay type: functional, organism-based
Candida albicans [10] = assay: Induction of ultrastructural changes in Candida albicans CAF2-1 assessed as breakage zones of plasma membrane at 16 ug/ml after 18 hrs by uranyl acetate/lead citrate staining based transmission electron microscopy; assay type: functional, organism-based
Candida albicans [11] = assay: Induction of ultrastructural changes in Candida albicans CAF2-1 assessed as disorganization and disruption of nuclear membrane at 16 ug/ml after 18 hrs by uranyl acetate/lead citrate staining based transmission electron microscopy; assay type: functional, organism-based
Candida albicans [12] = assay: Induction of ultrastructural changes in Candida albicans CAF2-1 assessed as cytoplasmic content dis-organization at 16 ug/ml after 18 hrs by uranyl acetate/lead citrate staining based transmission electron microscopy; assay type: functional, organism-based

Compound | MIC (Candida albicans [1]) | MIC (Candida albicans [2]) | MIC (Candida albicans [3]) | MIC (Candida albicans [4]) | other results
COc1c(O)c2c(c3c(=O)occc13)CC[C@H]1C(C)(C)CCC[C@]21C | > 50 µg/mL | >50 µg | > 32 µg/mL |  | 
COc1c(O)c2c(c3c1[C@@H](CO)OC3=O)CC[C@H]1C(C)(C)CCC[C@]21C | > 50 µg/mL | >50 µg | > 32 µg/mL | 20 µg | 
COc1c(O)c2c(c3c1CCOC3=O)CC[C@H]1C(C)(C)C(=O)CC[C@]21C | > 50 µg/mL | >50 µg | > 32 µg/mL | >50 µg | 
COc1c(O)c2c(c3c1[C@@H](CO)OC3=O)CC[C@H]1C(C)(C)C(=O)CC[C@]21C | > 50 µg/mL | >50 µg | > 32 µg/mL | >50 µg | 
Clc1ccc(COC(Cn2ccnc2)c2ccc(Cl)cc2Cl)c(Cl)c1 (stereo not given) [MICONAZOLE] |  | 0.005 µg | 0.0156 µg/mL (≈ 0.0375 µM) | 0.0006 µg | 
CC1(C)CCC[C@]2(C)c3c(O)c(O)c4c(c3CC[C@@H]12)C(=O)OCC4 | 50 µg/mL (≈ 151 µM) | >50 µg | > 32 µg/mL | 8 µg | 
CC1(C)CCC[C@]2(C)c3c(O)c(O)c4c(c3CC[C@@H]12)C(=O)O[C@H]4CO | 25 µg/mL (≈ 72.2 µM) | >50 µg | 32 µg/mL (≈ 92.4 µM) | 8 µg | Activity (Candida albicans [5]): Active; Activity (Candida albicans [6]): Active; Activity (Candida albicans [7]): Active; Activity (Candida albicans [8]): Active; Activity (Candida albicans [9]): Active; Activity (Candida albicans [10]): Active; Activity (Candida albicans [11]): Active; Activity (Candida albicans [12]): Active
C[C@H]1C(CCO)=C(O)C(=O)[C@H]2[C@H]1CC[C@H]1C(C)(C)CCC[C@]21C | > 50 µg/mL |  | > 32 µg/mL | <20 µg | 
COc1ccc(-c2coc3cc(O)c(OC)cc3c2=O)cc1 [CASTANIN] | > 50 µg/mL | >50 µg | > 32 µg/mL |  | 
CC1(C)CCC[C@]2(C)c3c(O)c(O)c4ccoc(=O)c4c3CC[C@@H]12 | 50 µg/mL (≈ 152 µM) |  | > 32 µg/mL |  | 
CC1(C)CCC[C@]2(C)c3c(O)c(O)c4c(c3C=C[C@@H]12)C(=O)O[C@@H]4CO | 50 µg/mL (≈ 145 µM) | >50 µg | > 32 µg/mL | >50 µg | 
COc1c(O)c2c(c3c1CCOC3=O)CC[C@H]1C(C)(C)CCC[C@]21C | > 50 µg/mL | >50 µg | > 32 µg/mL | >50 µg | 
COc1c(O)c2c(c3c(=O)occc13)CC[C@H]1C(C)(C)C(=O)CC[C@]21C | > 50 µg/mL | >50 µg | > 32 µg/mL | 10 µg | 
COc1c(O)c2c(c3c1[C@@H](CO)OC3=O)CC[C@H]1[C@@H]3C[C@@H]3CC[C@]21C | 50 µg/mL (≈ 145 µM) |  | > 32 µg/mL |  | 
COc1c(O)c2c(c3c1[C@H](O)COC3=O)CC[C@H]1C(C)(C)CCC[C@]21C | 50 µg/mL (≈ 139 µM) | 2 µg | 32 µg/mL (≈ 88.8 µM) | 5 µg | 
